Experimental data as given in the NIST ThermoML archive (doi:10.1021/je101086r).
± gives the expanded uncertainty stated by the source.

Experiment: xn = mol fraction of the nth substance listed
Settings: Pycnometric method

CCCC(=O)OCC [ethyl butanoate] + O=C=O
Settings	mass density [kg/m3]
313 K, 2000 kPa, Gas, x2 = 0.9978	39.4 ± 16
313 K, 2000 kPa, Liquid, x2 = 0.3795	919.1 ± 35
313 K, 3000 kPa, Gas, x2 = 0.9926	61.3 ± 17
313 K, 3000 kPa, Liquid, x2 = 0.4919	901 ± 34
313 K, 4000 kPa, Gas, x2 = 0.9951	96.8 ± 16
313 K, 4000 kPa, Liquid, x2 = 0.6053	867.6 ± 33
313 K, 5000 kPa, Gas, x2 = 0.9938	141.2 ± 16
313 K, 5000 kPa, Liquid, x2 = 0.7204	841.3 ± 32
313 K, 6000 kPa, Gas, x2 = 0.9941	222.9 ± 17
313 K, 6000 kPa, Liquid, x2 = 0.8124	813.8 ± 31
313 K, 7000 kPa, Gas, x2 = 0.9888	300 ± 17
313 K, 7000 kPa, Liquid, x2 = 0.8876	789.8 ± 30
313 K, 8000 kPa, Gas, x2 = 0.9616	450 ± 18
313 K, 8000 kPa, Liquid, x2 = 0.9495	744.8 ± 28
333 K, 2000 kPa, Gas, x2 = 0.967	38.2 ± 16
333 K, 2000 kPa, Liquid, x2 = 0.3088	801.5 ± 30
333 K, 3000 kPa, Gas, x2 = 0.9751	57 ± 16
333 K, 3000 kPa, Liquid, x2 = 0.3978	806.9 ± 31
333 K, 4000 kPa, Gas, x2 = 0.9726	82.4 ± 16
333 K, 4000 kPa, Liquid, x2 = 0.491	804.4 ± 31
333 K, 5000 kPa, Gas, x2 = 0.9713	120.5 ± 16
333 K, 5000 kPa, Liquid, x2 = 0.5707	786.8 ± 30
333 K, 6000 kPa, Gas, x2 = 0.9709	164.2 ± 16
333 K, 6000 kPa, Liquid, x2 = 0.6514	781.3 ± 30
333 K, 7000 kPa, Gas, x2 = 0.9706	258.1 ± 16
333 K, 7000 kPa, Liquid, x2 = 0.7285	752.2 ± 29
333 K, 8000 kPa, Gas, x2 = 0.9716	298.4 ± 17
333 K, 8000 kPa, Liquid, x2 = 0.8105	726.6 ± 28
333 K, 9000 kPa, Gas, x2 = 0.9541	375.1 ± 16
333 K, 9000 kPa, Liquid, x2 = 0.8711	692 ± 26
333 K, 10000 kPa, Gas, x2 = 0.92	426.5 ± 16
333 K, 10000 kPa, Liquid, x2 = 0.9039	670 ± 26
353 K, 2000 kPa, Gas, x2 = 0.9121	34.5 ± 16
353 K, 2000 kPa, Liquid, x2 = 0.2195	762.9 ± 29
353 K, 3000 kPa, Gas, x2 = 0.9126	46.2 ± 16
353 K, 3000 kPa, Liquid, x2 = 0.2919	764.7 ± 29
353 K, 4000 kPa, Gas, x2 = 0.9151	68.5 ± 16
353 K, 4000 kPa, Liquid, x2 = 0.356	765.8 ± 29
353 K, 5000 kPa, Gas, x2 = 0.9166	106.5 ± 17
353 K, 5000 kPa, Liquid, x2 = 0.4259	758.8 ± 29
353 K, 6000 kPa, Gas, x2 = 0.9166	150.4 ± 17
353 K, 6000 kPa, Liquid, x2 = 0.4863	753 ± 29
353 K, 7000 kPa, Gas, x2 = 0.9189	215.9 ± 16
353 K, 7000 kPa, Liquid, x2 = 0.5364	734.8 ± 28
353 K, 8000 kPa, Gas, x2 = 0.9142	258 ± 16
353 K, 8000 kPa, Liquid, x2 = 0.5983	719.6 ± 28
353 K, 9000 kPa, Gas, x2 = 0.9127	308.3 ± 16
353 K, 9000 kPa, Liquid, x2 = 0.6685	685.1 ± 29
353 K, 10000 kPa, Gas, x2 = 0.91	331.7 ± 16
353 K, 10000 kPa, Liquid, x2 = 0.7399	655.8 ± 26
353 K, 11000 kPa, Gas, x2 = 0.89	375 ± 16
353 K, 11000 kPa, Liquid, x2 = 0.8222	655.2 ± 25
373 K, 2000 kPa, Gas, x2 = 0.867	30.6
373 K, 2000 kPa, Liquid, x2 = 0.18	627.3 ± 24
373 K, 3000 kPa, Gas, x2 = 0.8751	45.1 ± 16
373 K, 3000 kPa, Liquid, x2 = 0.2406	665.4 ± 27
373 K, 4000 kPa, Gas, x2 = 0.8726	64.7 ± 27
373 K, 4000 kPa, Liquid, x2 = 0.3086	675.5 ± 26
373 K, 5000 kPa, Gas, x2 = 0.8713	96.5 ± 17
373 K, 5000 kPa, Liquid, x2 = 0.3859	686.5 ± 26
373 K, 6000 kPa, Gas, x2 = 0.8709	126.4
373 K, 6000 kPa, Liquid, x2 = 0.4129	675 ± 26
373 K, 7000 kPa, Gas, x2 = 0.8706	171 ± 16
373 K, 7000 kPa, Liquid, x2 = 0.4862	659.4 ± 25
373 K, 8000 kPa, Gas, x2 = 0.8716	201.1 ± 16
373 K, 8000 kPa, Liquid, x2 = 0.5222	647.4 ± 25
373 K, 9000 kPa, Gas, x2 = 0.8766	233.2 ± 16
373 K, 9000 kPa, Liquid, x2 = 0.5764	639.9 ± 24
373 K, 10000 kPa, Gas, x2 = 0.856	259.8 ± 16
373 K, 10000 kPa, Liquid, x2 = 0.6256	628.8 ± 24
